Results as given in patent US10654917B2, “Antibody molecules and peptide delivery systems for use in alzheimer's disease and related disorders” (TECHNOPHAGE, INVESTIGAÇĀO E DESENVOLVIMENTO EM …, priority 2015, dated 2020).
Read-outs that look alike come from different tables or passages of the source. Residues, ends and D or L forms follow the SMILES beside them. *: point of attachment. X1 = Cc1nn(CCN(CCN)CCCC(=O)*)c(C)c1CC(=O)O

Key:
[1] = Partition coefficient (log Po/w) of radiopeptides; format: physicochemical
Source text: Table 7 lists each peptide's name, isoelectric point (PI), charge (number of positive residues), calculated mass (in Da), and ion found; as well as the name, calculated mass, and found ion for the corresponding conjugate; and also retention times in HPLC and the partition coefficient (log Po/w). These values allowed the determination of the hydrophilic nature of peptides, where pepH1 and pepH4 were identified as the most hydrophilic peptides.

[2] = Biodistribution of technetium-labelled peptides; format: in vivo, CD1 mice
Protocol: To evaluate the capacity to cross the BBB in vivo, the selected peptides, pepH1 and pepH3, were analyzed for biodistribution in CD1 mice. The peptides were labelled with technetium at a final concentration of 8.5×10^−5 M and diluted in PBS. CD1 mice were injected (iv injection, tail vein). The mice were sacrificed by cervical dislocation after 5 and 60 minutes of incubation. The tissues of interest were dissected and washed to remove excess blood, weighed, and measured for radioactivity. Technetium radioactivity of the different peptides was measured for different organs.
Initial results are presented in Table 11, where “% I.A. refers to the “% injected activity”, that is, the amount of radioactivity measured in a given organ compared to the total originally injected.
The biodistribution studies were repeated, using higher doses of each peptide, specifically, a one hundred fold increase, as well as using PepH2 as a negative control, and allowing incubation for 2 minutes and 60 minutes. Tissue biodistribution profile in percentage of injected radiopeptide activity per gram of tissue/organ was measured and results are presented in Table 12.

Cc1nn(CCN(CCN)CCCC(=O)N[C@H](C(=O)N[C@@H](CCC(N)=O)C(=O)N[C@@H](CCC(N)=O)C(=O)N[C@@H](CC(C)C)C(=O)N[C@H](C(=O)N[C@@H](CCCCN)C(=O)N[C@@H](CCCNC(=N)N)C(=O)N[C@@H](Cc2ccccc2)C(=O)N[C@@H](CO)C(=O)N[C@@H](CC(C)C)C(=O)O)[C@@H](C)O)C(C)C)c(C)c1CC(=O)O [^99mTc(CO)3-Pz^1-pepH1, metal not drawn] (X1-VQQLTKRFSL-OH; C-terminus assumed)
log Po/w of radiopeptides [1]: −1.76 ± 0.11
injected activity in Blood ([2]; 140 μg/mouse, 1 hour): 1.0 ± 0.2 % I.A./g
injected activity in Bone ([2]; 140 μg/mouse, 1 hour): 0.16 ± 0.01 % I.A./g
injected activity in Brain ([2]; 140 μg/mouse, 1 hour): 0.03 ± 0.00 % I.A./g
injected activity in Heart ([2]; 140 μg/mouse, 1 hour): 0.39 ± 0.02 % I.A./g
injected activity in Intestine ([2]; 140 μg/mouse, 1 hour): 13.0 ± 2.0 % I.A./g
injected activity in Kidney ([2]; 140 μg/mouse, 1 hour): 1.6 ± 0.3 % I.A./g
injected activity in Liver ([2]; 140 μg/mouse, 1 hour): 2.4 ± 1.0 % I.A./g
injected activity in Lung ([2]; 140 μg/mouse, 1 hour): 1.4 ± 0.3 % I.A./g
injected activity in Muscle ([2]; 140 μg/mouse, 1 hour): 0.2 ± 0.0 % I.A./g
injected activity in Spleen ([2]; 140 μg/mouse, 1 hour): 0.22 ± 0.01 % I.A./g
injected activity in Stomach ([2]; 140 μg/mouse, 1 hour): 0.31 ± 0.08 % I.A./g
tissue uptake at 2 min ([2]; CD1, blood, iv, 140 ug/mouse, total radioactivity, 140 μg/mouse, 2 min, read-out: injected activity in Blood): 3.1 ± 0.5 %ID/g
tissue uptake at 2 min ([2]; CD1, bone, iv, 140 ug/mouse, total radioactivity, 140 μg/mouse, 2 min, read-out: injected activity in Bone): 0.6 ± 0.2 %ID/g
tissue uptake at 2 min ([2]; CD1, brain, iv, 140 ug/mouse, total radioactivity, 140 μg/mouse, 2 min, read-out: injected activity in Brain): 0.11 ± 0.02 %ID/g
tissue uptake at 2 min ([2]; CD1, heart, iv, 140 ug/mouse, total radioactivity, 140 μg/mouse, 2 min, read-out: injected activity in Heart): 1.1 ± 0.4 %ID/g
dose excreted at 2 min ([2]; CD1, in vivo, iv, 140 ug/mouse, total radioactivity, 140 μg/mouse, 2 min, read-out: Excretion): 17.1 ± 7.9%
dose excreted at 1 h ([2]; CD1, in vivo, iv, 140 ug/mouse, total radioactivity, 140 μg/mouse, 1 hour, read-out: Excretion): 32.7 ± 0.2%
tissue uptake at 2 min ([2]; CD1, intestine, iv, 140 ug/mouse, total radioactivity, 140 μg/mouse, 2 min, read-out: injected activity in Intestine): 3.8 ± 2.3 %ID/g
tissue uptake at 2 min ([2]; CD1, kidney, iv, 140 ug/mouse, total radioactivity, 140 μg/mouse, 2 min, read-out: injected activity in Kidney): 14.6 ± 8.2 %ID/g
tissue uptake at 2 min ([2]; CD1, liver, iv, 140 ug/mouse, total radioactivity, 140 μg/mouse, 2 min, read-out: injected activity in Liver): 7 ± 1.1 %ID/g
tissue uptake at 2 min ([2]; CD1, lung, iv, 140 ug/mouse, total radioactivity, 140 μg/mouse, 2 min, read-out: injected activity in Lung): 2.6 ± 0.5 %ID/g
tissue uptake at 2 min ([2]; CD1, muscle, iv, 140 ug/mouse, total radioactivity, 140 μg/mouse, 2 min, read-out: injected activity in Muscle): 0.6 ± 0.2 %ID/g
tissue uptake at 2 min ([2]; CD1, spleen, iv, 140 ug/mouse, total radioactivity, 140 μg/mouse, 2 min, read-out: injected activity in Spleen): 0.7 ± 0.2 %ID/g
tissue uptake at 2 min ([2]; CD1, stomach, iv, 140 ug/mouse, total radioactivity, 140 μg/mouse, 2 min, read-out: injected activity in Stomach): 0.7 ± 0.4 %ID/g
tissue uptake at 5 min ([2]; mouse, blood, 10 ug, total radioactivity, CD1 mice, iv, 5 min, 10 μg, read-out: injected activity in Blood): 3.1 ± 0.5 %ID/g
tissue uptake at 1 h ([2]; mouse, blood, 10 ug, total radioactivity, CD1 mice, iv, 1 hour, 10 μg, read-out: injected activity in Blood): 1 ± 0.2 %ID/g
tissue uptake at 5 min ([2]; mouse, bone, 10 ug, total radioactivity, CD1 mice, iv, 5 min, 10 μg, read-out: injected activity in Bone): 0.6 ± 0.2 %ID/g
tissue uptake at 1 h ([2]; mouse, bone, 10 ug, total radioactivity, CD1 mice, iv, 1 hour, 10 μg, read-out: injected activity in Bone): 0.16 ± 0.01 %ID/g
tissue uptake at 5 min ([2]; mouse, brain, 10 ug, total radioactivity, CD1 mice, iv, 5 min, 10 μg, read-out: injected activity in Brain): 0.11 ± 0.02 %ID/g
tissue uptake at 1 h ([2]; mouse, brain, 10 ug, total radioactivity, CD1 mice, iv, 1 hour, 10 μg, read-out: injected activity in Brain): 0.03 %ID/g
tissue uptake at 5 min ([2]; mouse, heart, 10 ug, total radioactivity, CD1 mice, iv, 5 min, 10 μg, read-out: injected activity in Heart): 1.1 ± 0.4 %ID/g
tissue uptake at 1 h ([2]; mouse, heart, 10 ug, total radioactivity, CD1 mice, iv, 1 hour, 10 μg, read-out: injected activity in Heart): 0.39 ± 0.02 %ID/g
percent of injected dose excreted at 5 min ([2]; mouse, in vivo, 10 ug, total radioactivity, CD1 mice, iv, 5 min, 10 μg, read-out: Excretion): 17.1 ± 7.9 %ID
percent of injected dose excreted at 1 h ([2]; mouse, in vivo, 10 ug, total radioactivity, CD1 mice, iv, 1 hour, 10 μg, read-out: Excretion): 32.7 ± 0.2 %ID
tissue uptake at 5 min ([2]; mouse, intestine, 10 ug, total radioactivity, CD1 mice, iv, 5 min, 10 μg, read-out: injected activity in Intestine): 3.8 ± 2.3 %ID/g
tissue uptake at 1 h ([2]; mouse, intestine, 10 ug, total radioactivity, CD1 mice, iv, 1 hour, 10 μg, read-out: injected activity in Intestine): 13 ± 2 %ID/g
tissue uptake at 5 min ([2]; mouse, kidney, 10 ug, total radioactivity, CD1 mice, iv, 5 min, 10 μg, read-out: injected activity in Kidney): 14.6 ± 8.2 %ID/g
tissue uptake at 1 h ([2]; mouse, kidney, 10 ug, total radioactivity, CD1 mice, iv, 1 hour, 10 μg, read-out: injected activity in Kidney): 1.6 ± 0.3 %ID/g
tissue uptake at 5 min ([2]; mouse, liver, 10 ug, total radioactivity, CD1 mice, iv, 5 min, 10 μg, read-out: injected activity in Liver): 7 ± 1.1 %ID/g
tissue uptake at 1 h ([2]; mouse, liver, 10 ug, total radioactivity, CD1 mice, iv, 1 hour, 10 μg, read-out: injected activity in Liver): 2.4 ± 1 %ID/g
tissue uptake at 5 min ([2]; mouse, lung, 10 ug, total radioactivity, CD1 mice, iv, 5 min, 10 μg, read-out: injected activity in Lung): 2.6 ± 0.5 %ID/g
tissue uptake at 1 h ([2]; mouse, lung, 10 ug, total radioactivity, CD1 mice, iv, 1 hour, 10 μg, read-out: injected activity in Lung): 1.4 ± 0.3 %ID/g
tissue uptake at 5 min ([2]; mouse, muscle, 10 ug, total radioactivity, CD1 mice, iv, 5 min, 10 μg, read-out: injected activity in Muscle): 0.6 ± 0.2 %ID/g
tissue uptake at 1 h ([2]; mouse, muscle, 10 ug, total radioactivity, CD1 mice, iv, 1 hour, 10 μg, read-out: injected activity in Muscle): 0.2 %ID/g
tissue uptake at 5 min ([2]; mouse, pancreas, 10 ug, total radioactivity, CD1 mice, iv, 5 min, 10 μg, read-out: injected activity in Pancreas): 0.8 ± 0.2 %ID/g
tissue uptake at 1 h ([2]; mouse, pancreas, 10 ug, total radioactivity, CD1 mice, iv, 1 hour, 10 μg, read-out: injected activity in Pancreas): 0.41 ± 0.01 %ID/g
tissue uptake at 5 min ([2]; mouse, spleen, 10 ug, total radioactivity, CD1 mice, iv, 5 min, 10 μg, read-out: injected activity in Spleen): 0.7 ± 0.2 %ID/g
tissue uptake at 1 h ([2]; mouse, spleen, 10 ug, total radioactivity, CD1 mice, iv, 1 hour, 10 μg, read-out: injected activity in Spleen): 0.22 ± 0.01 %ID/g
tissue uptake at 5 min ([2]; mouse, stomach, 10 ug, total radioactivity, CD1 mice, iv, 5 min, 10 μg, read-out: injected activity in Stomach): 0.7 ± 0.4 %ID/g
tissue uptake at 1 h ([2]; mouse, stomach, 10 ug, total radioactivity, CD1 mice, iv, 1 hour, 10 μg, read-out: injected activity in Stomach): 0.31 ± 0.08 %ID/g
